The source of these data is patent US5385941A, “Salts/ion pairs of non-steroidal anti-inflammatory drugs in various dosage forms” (Warner-Lambert Company, priority 1993, dated 1995).

This data set is described as follows: physchem. The conditions noted are these: water.

Converted amounts (≈) assume the structure as drawn.

`Cc1ccc(Cl)c(Nc2ccccc2C(=O)O)c1Cl` [MA, Meclofenamic acid] returned a solubility of 30 µg/mL (≈ 101 µM).

As usually defined, the solubility is the dissolved amount per volume that the medium holds.
